Reference: article PMC10002517, “Inhibition of Transglutaminase 2 as a Therapeutic Strategy in Celiac Disease—In Vitro Studies in Intestinal Cells and Duodenal Biopsies” (International Journal of Molecular Sciences, 2023)

How the values were obtained:
[1] = system: uptake of P56-88 by Caco-2 cells; experiment: Epithelial uptake of P56-88 by Caco-2 cells (confocal microscopy); format: cell-based, human; settings: confocal microscopy
Description: For microscopic evaluation, Caco-2 cells were seeded on polymer-covered µ-slides (80826, Ibidi) and incubated for 1 h with labeled gliadin peptides in the presence of TG2 inhibitors. After three washes with PBS, cells were fixed with 4% paraformaldehyde. Nuclear staining was performed for 10 min using Hoechst fluorescent stain (1:1000 in PBS). Imaging was done using a confocal laser scanning microscope (TE2000-E, Nikon) and a 60× Plan Apo (NA 1.41) immersion oil objective. Processing of z-stacks, including 3D reconstruction, was performed using ImageJ [46]. For quantitation, z-stack images were taken with the same microscope settings. Using ImageJ, maximum intensity projections were obtained of the z-stack images, and the fluorescence intensity was measured within the whole image.

[2] = system: transepithelial passage of P56-88 in Caco-2 cells; experiment: Transepithelial transport of promofluor-conjugated gliadin peptide P56-88 across Caco-2 monolayers (fluorometry); format: cell-based, human; settings: 3 h; for transepithelial passage of P56-88 (relative basal fluorescence): 7 µg/mL peptide apical in HBSS, normalized to no inhibitor, mean ± SD, n = 3
Description: Transepithelial transport of immunogenic and toxic gliadin peptides were examined in Caco-2 cells 7–14 days after confluency. Caco-2 cells were seeded on semi-permeable transwell supports (ThinCert, culture surface: 33.6 mm², pore size: 0.4 µm) in 24-well plates (Greiner Bio One, Pleidelsheim, Germany). Prior to the transport experiments, the integrity of the cell monolayer was tested by measuring the transepithelial electric resistance (TEER) using a volt-ohm meter (Millipore, Schwalbach, Germany). Monolayers with insufficient TEER (<350 Ω/cm^2) were omitted. The synthesis and purification of promofluor-conjugated gliadin peptides were described elsewhere. Cells were either incubated with the immunogenic peptide P56-88 ([…]) or the toxic gliadin peptide P31-43 (LGQQQPFPPQQPY), 7 µg/mL each, in Hank’s balanced salt solution (HBSS) for 3 h. To investigate the role of TG2 on the transport of gliadin peptides, incubation was performed in the presence of ERW1041 and PX-12. After 3 h, basal and apical supernatants were collected, and the relative fluorescence of the basal compartment was quantified using a FLUOstar Optima (BMG Labtech) microplate reader. Background subtraction was performed against conditions, where no labeled peptides were used. Normalization was performed against conditions, where no inhibitors were used.

Caco-2 cells = experiment: Resazurin-based cell viability assay (PrestoBlue HS); set-up: species or system human; settings: confluent Caco-2 cells, 24 h in medium, n = 3
Description: The cell viability of Caco-2 cells was examined using PrestoBlue HS (A13261, (Thermo Fisher Scientific). In brief, Caco-2 cells (7–8 days after confluency) were incubated with PX-12 or ERW1041 at the indicated concentrations for 24 h in full medium. As a positive control, cells were incubated with 4% PFA for 10 min. After washing with PBS, cells were incubated with PrestoBlue HS diluted 1:10 in culture medium for 2 h at 37 °C. Fluorometric examination was conducted using a Clariostar Plus (no well scan mode, bottom optic measurement, excitation 545 nm, emission 600 nm, fixed gain: 800). Every experiment was performed in duplicates with at least three technical replicates. Normalization was performed against conditions, where cells were not treated with TG2 inhibitors.

[3] = biological target: T1, human transglutaminase 2 (TG2) (Homo sapiens, UniProt P21980); experiment: TG2-mediated cross-linking (transamidation) of pepsin-/trypsin-digested gliadin (PTG) on immobilized TG2; format: biochemical; settings: for TG2-mediated cross-linking of PTG: 10 nM TG2 coated, 10 µg/mL PTG, 1 h 37 °C, normalized to TG2 without inhibitor, mean ± SD, n = 4
T1 construct: purchased Zedira, Darmstadt, Germany T034
T1 sequence (P21980 1-687): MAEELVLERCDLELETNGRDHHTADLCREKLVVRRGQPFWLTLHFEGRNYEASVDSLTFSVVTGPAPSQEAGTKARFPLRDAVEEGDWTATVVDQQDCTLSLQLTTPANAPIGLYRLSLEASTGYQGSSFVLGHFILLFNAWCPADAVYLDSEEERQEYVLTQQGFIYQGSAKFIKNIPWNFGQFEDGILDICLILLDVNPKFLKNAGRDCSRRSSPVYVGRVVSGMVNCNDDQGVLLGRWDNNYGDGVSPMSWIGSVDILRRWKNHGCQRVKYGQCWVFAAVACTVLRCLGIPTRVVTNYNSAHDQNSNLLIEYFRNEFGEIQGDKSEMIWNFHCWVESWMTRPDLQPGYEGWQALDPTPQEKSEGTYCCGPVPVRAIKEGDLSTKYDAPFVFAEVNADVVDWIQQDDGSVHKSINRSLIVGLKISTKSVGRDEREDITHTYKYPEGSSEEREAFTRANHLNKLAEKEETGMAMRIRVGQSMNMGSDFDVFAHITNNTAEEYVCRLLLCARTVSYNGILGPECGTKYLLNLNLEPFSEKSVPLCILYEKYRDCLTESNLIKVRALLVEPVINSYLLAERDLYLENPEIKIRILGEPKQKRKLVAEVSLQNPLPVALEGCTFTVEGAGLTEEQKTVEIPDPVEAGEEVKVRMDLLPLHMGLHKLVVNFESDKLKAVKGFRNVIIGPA
Description: A tissue-culture-treated 96-well plate (83.3924, Sarstedt, Nümbrecht, Germany) was coated for 1 h at 37°C with 10 nM TG2 (T034, Zedira, Darmstadt, Germany) in 50 mM Tris, 1 mM EDTA, 5 mM CaCl2 (pH 7.5) buffer containing 10 mM DTT. After three washes with PBS, the plate was blocked with 2% bovine serum albumin (BSA, Carl Roth GmbH, Karlsruhe, Germany) in PBS for 30 min at room temperature. Then, incubation with 10 µg/mL of pepsin-/trypsin-digested gliadin (PTG, T004, Zedira) ± inhibitors was performed for 1 h at 37 °C. After three washes with PBS, the primary antibody directed against gliadin (1:1000, clone XGY4, Zedira) was applied in BSA 2% at 4 °C overnight on an orbital shaker. The next day, the secondary antibody directed against mouse IgG (1:1000; sc-516102, Santa Cruz Biotechnology, Dallas, TX, USA) was incubated in BSA 2% for 1 h at room temperature on an orbital shaker. After three washes with phosphate buffered saline (PBS), the HRP-substrate TMB (tetramethylbenzidine, Sigma-Aldrich, Darmstadt, Germany) was added (100 µL per well). Photometric quantitation at 655 nm was performed after 15 min using a Clariostar Plus (BMG Labtech, Ortenberg, Germany) microplate reader.

[4] = 1 h incubation with peptide and inhibitor, n = 3
[5] = up to a concentration of 100 µM

Structure (SMILES)	uptake of P56-88 by Caco-2 cells ([1]; 100 µM inhibitor, 1 h)	uptake of P56-88 by Caco-2 cells [1, 4]	transepithelial passage of P56-88 (relative basal fluorescence) ([2]; 1 µM inhibitor)	transepithelial passage of P56-88 (relative basal fluorescence) ([2]; 100 µM inhibitor)	cell viability (Caco-2 cells; 200 µM and 500 µM)	cell viability (Caco-2 cells; [5])	TG2-mediated cross-linking of PTG ([3]; 10 µM inhibitor)	TG2-mediated cross-linking of PTG ([3]; 100 µM inhibitor)	effect on the epithelial translocation of P56-88 [2]	reduction of enzymatic modification of gliadin ([3]; at 10 µM and 100 µM)
O=C(NC[C@@H]1CC(Br)=NO1)[C@@H]1CCCN1C(=O)OCc1cnc2ccccc2c1 [ERW1041]	nearly absent	reduced the uptake of P56-88 in a dose-dependent manner	33 ± 22%	24 ± 16%	significantly reduced cell viability	did not affect cell viability	48 ± 8%	11 ± 2%		
CCC(C)SSc1ncc[nH]1 (stereo not drawn) [PX-12, 2-[(1-methylpropyl)dithio]-1H-imidazole]		did not affect the uptake of P56-88			significantly reduced cell viability	did not affect cell viability	15 ± 3%	5 ± 1%	no significant effect	more than 80%
